{
  "source": "patent US4812409A",
  "about": "“Hydrolyzable fluorescent substrates and analytical determinations using same” (Eastman Kodak Company, priority 1986, dated 1989)",
  "key": {"[1]": {"test_system": "Enterobacter cloacae (ATCC 23355)", "assay": "Detection of Enterobacter cloacae with β-D-xylosidase substrate, fluorescence", "assay_type": "cell-based", "details": "for Relative Fluorescence: 37° C., ex 540 nm, em 620 nm", "protocol": "(§1) Cells were prepared as follows. A β-D-xylosidase induction medium was prepared by adding the following materials in order to 350 μl of 0.1 molar sodium, potassium phosphate buffer (pH 7.0), 25 μl 5% yeast extract, 50 μl of 4% (NH4)2 HPO4 and 1% KCl, 50 μl 0.0075% MnSO4.H2 O and 0.01% FeSO4.7H2 O. This mixture was autoclaved for 30 minutes, then cooled. Just before incubation, 25 μl of 20% xylose solution and 2% MgSO4.7H2 O, which had been filter sterilized or autoclaved separately, were added. Klebsiella pneumoniae (ATCC 13882) and Enterobacter cloacae (ATCC 23355) were both grown in this medium for 18 hours at 37° C. Ten milliliters of cells were harvested by centrifugation, washed, and resuspended in 0.1 molar potassium phosphate buffer (pH 7.0). The cell concentration was adjusted to approximately 5×10^8 cells/ml (optical density 0.800 at 620 nm).\n(§2) In two milliliters HA 96 well titration plates were placed 200 μl of the cell suspension. To plate 1 was added 100 μl of the substrate solution of Example 1 without surfactant (10 μg/μl N,N-dimethylformamide in 9 μl potassium phosphate buffer), to plate 2 was added the substrate solution with surfactant (10 μg/μl N,N-dimethylformamide and 200 μl TRITON X-100 surfactant in 9 μl potassium phosphate buffer).\n(§3) After the substrate was added, an initial reading was taken, the plates were kept at 37° C., and additional readings were taken after 5, 10, 15, 30, and 60 minutes. The average of three replicates was used. A commercially available Dynatech Microfluor Reader, modified with an excitation filter at 540 nm, an emission filter at 620 nm, a 200-watt tungsten lamp and a heating element, was used to measure fluorescence."}, "[2]": {"test_system": "Klebsiella pneumoniae (ATCC 13882)", "assay": "Detection of Klebsiella pneumoniae with β-D-xylosidase substrate, fluorescence", "assay_type": "cell-based", "details": "for Relative Fluorescence: 37° C., ex 540 nm, em 620 nm", "protocol": "as §1, §2, §3"}, "[3]": {"details": "Millititer Plate 1, without surfactant, 0 min"}, "[4]": {"details": "Millititer Plate 1, without surfactant, 5 min"}, "[5]": {"details": "Millititer Plate 1, without surfactant, 10 min"}, "[6]": {"details": "Millititer Plate 1, without surfactant, 15 min"}, "[7]": {"details": "Millititer Plate 1, without surfactant, 30 min"}, "[8]": {"details": "Millititer Plate 1, without surfactant, 60 min"}, "[9]": {"details": "Millititer Plate 2, with TRITON X-100 surfactant, 0 min"}, "[10]": {"details": "Millititer Plate 2, with TRITON X-100 surfactant, 5 min"}, "[11]": {"details": "Millititer Plate 2, with TRITON X-100 surfactant, 10 min"}, "[12]": {"details": "Millititer Plate 2, with TRITON X-100 surfactant, 15 min"}, "[13]": {"details": "Millititer Plate 2, with TRITON X-100 surfactant, 30 min"}, "[14]": {"details": "Millititer Plate 2, with TRITON X-100 surfactant, 60 min"}, "[15]": {"details": "both substrate solutions (with and without surfactant)"}},
  "data": [
    {"smiles": "O=C1C=Cc2ccc(O[C@@H]3OC[C@@H](O)[C@H](O)[C@H]3O)c3cccc1c23", "note": "[Example 1, 1-(6-Oxyphenalenone)-β-D-xylopyranose]", "values": [
      {"measurement": "Relative Fluorescence", "setting": "[1]; [3]", "value": 525},
      {"measurement": "Relative Fluorescence", "setting": "[1]; [4]", "value": 684},
      {"measurement": "Relative Fluorescence", "setting": "[1]; [5]", "value": 925},
      {"measurement": "Relative Fluorescence", "setting": "[1]; [6]", "value": 1150},
      {"measurement": "Relative Fluorescence", "setting": "[1]; [7]", "value": 2245},
      {"measurement": "Relative Fluorescence", "setting": "[1]; [8]", "value": 2717},
      {"measurement": "Relative Fluorescence", "setting": "[1]; [9]", "value": 586},
      {"measurement": "Relative Fluorescence", "setting": "[1]; [10]", "value": 902},
      {"measurement": "Relative Fluorescence", "setting": "[1]; [11]", "value": 1341},
      {"measurement": "Relative Fluorescence", "setting": "[1]; [12]", "value": 1795},
      {"measurement": "Relative Fluorescence", "setting": "[1]; [13]", "value": 2626},
      {"measurement": "Relative Fluorescence", "setting": "[1]; [14]", "value": 3003},
      {"measurement": "Time at which the microorganism can be detected", "setting": "[1]; [15]", "value": 15, "unit": "min"},
      {"measurement": "Relative Fluorescence", "setting": "[2]; [3]", "value": 500},
      {"measurement": "Relative Fluorescence", "setting": "[2]; [4]", "value": 585},
      {"measurement": "Relative Fluorescence", "setting": "[2]; [5]", "value": 698},
      {"measurement": "Relative Fluorescence", "setting": "[2]; [6]", "value": 752},
      {"measurement": "Relative Fluorescence", "setting": "[2]; [7]", "value": 1205},
      {"measurement": "Relative Fluorescence", "setting": "[2]; [8]", "value": 1686},
      {"measurement": "Relative Fluorescence", "setting": "[2]; [9]", "value": 557},
      {"measurement": "Relative Fluorescence", "setting": "[2]; [10]", "value": 635},
      {"measurement": "Relative Fluorescence", "setting": "[2]; [11]", "value": 741},
      {"measurement": "Relative Fluorescence", "setting": "[2]; [12]", "value": 869},
      {"measurement": "Relative Fluorescence", "setting": "[2]; [13]", "value": 1232},
      {"measurement": "Relative Fluorescence", "setting": "[2]; [14]", "value": 1976},
      {"measurement": "Time at which the microorganism can be detected", "setting": "[2]; [15]", "value": 15, "unit": "min"}
    ]}
  ]
}
